Patent EP4772500A1, “NOVEL ISOXAZOLE COMPOUND AS TM4SF5-SPECIFIC INHIBITOR AND USE THEREOF” (Seoul National University R&DB Foundation, priority 2023, dated 2025)

System: SNU761-EV cells
Experiment: Western blotting of SLAMF7 expression, control SNU761 cells
Assay type: cell-based, human
Conditions: SNU761-EV (FIG. 13d)
Procedure: Cell extracts were obtained from cells grown to a density of 70-80% without any treatment, or from cells treated with vehicle DMSO or drugs at the given concentrations for 24 hours. For the extract of hepatocytes or liver cancer cells, a lysis buffer (150 mM NaCl, 1% NP-40, 50 mM Tris-HCl, 0.25% sodium deoxycholate, pH 7.4) including a protease inhibitor cocktail (GenDEPOT) was used. In addition, after washing animal liver tissue twice with PBS, SDS, Na3VO4, and protease inhibitor cocktails (GenDEPOT) were added to a lysis buffer [50 mM Tris-HCl, pH 7.4, 1% NP40, 0.25% sodium deoxycholate, 150 mM NaCl, 1 mM EDTA (based on 500 ml)], followed by treatment at 4°C for 15 minutes. […] After quantification using BCA reagent (Thermo Scientific), a 4 × sample buffer [100% glycerol 4 ml, Tris-HCl, pH 6.8, 2.4 ml, SDS 0.8 g, Bromophenol blue 4 mg, betamercaptoethanol 0.4 ml, H2O 3.1 ml (based on 10 ml)] was added, followed by boiling at 100°C for 5 minutes. […]
After 24 hours, vehicle DMSO, drug ST-1-025, or ST-5-002 was treated at the given concentrations. […] (f) After treating NK92-EV or NK92-TM4SF5 cells with DMSO or drugs ST-2-001 (1 nM), ST-3-005 (10 nM or 1 µM), ST-5-001, or ST-5-002 (100 nM or 1 µM) for 24 hours, the expression of SLAMF7 expressed on the cell surface was analyzed through immunostaining using flow cytometry. […]

Cc1ccc(C(=O)Nc2ccc(-c3cc(-c4ccc(O)cc4)no3)cc2)cc1 [ST-5-002, N-(4-(3-(4-hydroxyphenyl)isoxazole-5-yl)phenyl)-4-methylbenzamide]
expression of SLAMF7: lowered
